Key:
[1] = test system: MDCK-MDR1 cells; assay: in vitro; conditions: dog, MDCK-MDR1, 1 h, 5 μM
Procedure: (§1) MDCK-MDR1 is a stable-transfected cell line originating from MDCK cells, with over-expression of human MDR1 gene. The cell line is widely used for the identification and characterization of P-gp substrates and inhibitors.
(§2) MDCK-MDR1 cells were plated into 96-well Millipore Millicell-96 plates at 7,500 cells/75 μL/well and incubated for three days at 37° C. with 5% CO2. Cells were washed with Hank's Balanced Salt Solution (HBSS) with 5 mM HEPES for 30 minutes before starting the experiment. Test compound solutions were prepared by diluting DMSO stock into HBSS buffer, resulting in a final DMSO concentration of 0.1%. Prior to the experiment, cell monolayer integrity was verified by […] electrical resistance (TEER). Transport experiment was initiated by adding test compounds to the apical (75 μL) or basal (250 μL) side. Transport plates were incubated at 37° C. in a humidified incubator with 5% CO2. Samples were taken from the donor and acceptor compartments after one hour and analyzed by liquid chromatography with tandem mass spectrometry (LC/MS/MS).
(§3) Digoxin was used as reference control.
(§4) Apparent permeability (Papp) values were calculated using the following equation: Papp=(dQ/dt)/A/Co; where dQ/dt is the initial rate of amount of test compound transported across cell monolayer, A is the surface area of the filter membrane, and Co is the initial concentration of the test compound, calculated for each direction using a 4-point calibration curve by LC/MS/MS.
(§5) Net flux ratio between the two directional transports was calculated by the following equation: Ratio=Papp, B-A/Papp, A-B; where Papp, B-A and Papp, A-B represent the apparent permeability of test compound from the basal-to-apical and apical-to-basal side of the cellular monolayer, respectively.
(§6) Recovery was calculated based on the compound concentration at the end of the experiment, compared to that at the beginning of the experiment, adjusted for volumes.
(§7) A net flux ratio greater than two was considered a positive result for substrate determination. […] If the addition of a known P-gp inhibitor to the experiment reduces the net flux ratio by a significant amount (more than 50% reduction or reduces the ratio to close to unity), it is likely that the compound tested is a P-gp substrate.

[2] = test system: P-gp (human MDR1); assay: in vitro; conditions: dog; for Papp A→B at 1 h, 5 μM / Papp B→A at 1 h, 5 μM: MDCK-MDR1, Papp
Procedure: as §1, §2, §3, §4, §5, §6, §7

Cn1c(Nc2ccc(I)cc2F)c(C(=O)NOCCO)c2cccnc21 [Example 2, 2-((2-Fluoro-4-iodophenyl)amino)—N-(2-hydroxyethoxy)-1-methyl-1H-pyrrolo[2,3-b]pyridine-3-carboxamide]
Papp, A-B Value [1]: 47.8 ×10⁻⁶ cm/s
Papp, B-A Value [1]: 41.3 ×10⁻⁶ cm/s
Recover Rate [1]: 92%
efflux ratio at 1 h, 5 μM ([2]; MDCK-MDR1): 0.9
Papp A→B at 1 h, 5 μM ([2]; A-B Mean): 49.1 ×10⁻⁶ cm/s
Papp A→B at 1 h, 5 μM ([2]; A-B Value): 50.5 ×10⁻⁶ cm/s
Papp B→A at 1 h, 5 μM ([2]; B-A Mean): 41.8 ×10⁻⁶ cm/s
Papp B→A at 1 h, 5 μM ([2]; B-A Value): 42.3 ×10⁻⁶ cm/s

From patent US11161845B2, “Pyrrolopyridine-aniline compounds for treatment of dermal disorders” (Nflection Therapeutics, Inc., priority 2017, dated 2021)
